# Measurements published in ChEMBL document CHEMBL6177952, “Exploring chloro-isoxazole compounds inspired on tetrahydrofuran neolignans as promising antileishmanial agents” (Eur J Med Chem, 2025).
# Calls of active or inactive are those of the source. The rule behind the calls is not given here.
# What was measured:
# [1] = tested on: Leishmania amazonensis; assay: Antileishmanial activity against Leishmania amazonensis promastigotes assessed as viable apoptotic parasites at 38.1 uM incubated for 72 hrs by Annexin V/7-AAD staining based flow cytometry analysis relative to control; format: functional
# [2] = tested on: Mitochondrial membrane; assay: Induction of mitochondrial membrane potential in Leishmania amazonensis promastigotes at 38.1 uM measured at 48 hrs by flow cytometry analysis; format: cell membranes
# [3] = tested on: Leishmania amazonensis; assay: Antileishmanial activity against leishmania amazonensis infected in BALB/c mouse assessed as reduction in lesion size at 5 mg/kg, ILES measured at 6 to 9 week post infection; format: functional, organism-based; settings: time 6-9 weeks
# [4] = tested on: Leishmania amazonensis; assay: Antileishmanial activity against leishmania amazonensis infected in BALB/c mouse assessed as reduction in parasite load in footpad tissue at 5 mg/kg, ILES measured after 65 days post infection by limiting dilution assay; format: functional, organism-based; settings: time 65.0 day
# [5] = Selectivity ratio of CC50 for cytotoxicity against BALB/c mouse Peritoneal macrophage assessed as inhibition of cell growth to IC50 for antileishmanial activity against leishmania amazonensis IFLA/BR/1967/PH8 intracellular amastigote infected in mouse Peritoneal macrophage; format: toxicity, cell-based; settings: peritoneal macrophages, read-out: Ratio CC50/IC50
# [6] = Selectivity ratio of CC50 for cytotoxicity against BALB/c mouse Peritoneal macrophage assessed as inhibition of cell growth to IC50 for antileishmanial activity against leishmania amazonensis IFLA/BR/1967/PH8 promastigotes infected in mouse Peritoneal macrophage; format: toxicity, cell-based; settings: peritoneal macrophages, read-out: Ratio CC50/IC50
# [7] = Mutagenicity in Salmonella typhimurium TA102 assessed as number of revertant colonies per plate at 500 microg/ml in presence of S9 fraction by Ames test; format: toxicity, subcellular; settings: salmonella enterica subsp. enterica serovar typhimurium, dose 500 µg/ml
# [8] = Mutagenicity in Salmonella typhimurium TA102 assessed as number of revertant colonies per plate at 50 microg/ml in presence of S9 fraction by Ames test; format: toxicity, subcellular; settings: salmonella enterica subsp. enterica serovar typhimurium, dose 50 µg/ml
# [9] = tested on: Leishmania amazonensis; assay: Antileishmanial activity against Leishmania amazonensis promastigotes assessed as late apoptotic parasites at 38.1 uM incubated for 24 hrs by Annexin V/7-AAD staining based flow cytometry analysis relative to control; format: functional
# [10] = Mutagenicity in Salmonella typhimurium TA100 assessed as number of revertant colonies per plate at 1500 microg/ml by Ames test; format: toxicity; settings: salmonella enterica subsp. enterica serovar typhimurium; dose 1500 µg/ml
# [11] = tested on: Leishmania amazonensis; assay: Antileishmanial activity against Leishmania amazonensis promastigotes assessed as viable apoptotic parasites at 38.1 uM incubated for 24 hrs by Annexin V/7-AAD staining based flow cytometry analysis relative to control; format: functional
# [12] = Mutagenicity in Salmonella typhimurium TA102 assessed as number of revertant colonies per plate at 5000 microg/ml by Ames test; format: toxicity; settings: salmonella enterica subsp. enterica serovar typhimurium; dose 5000 µg/ml
# [13] = tested on: Leishmania amazonensis; assay: Antileishmanial activity against Leishmania amazonensis promastigotes assessed as early apoptotic parasites at 38.1 uM incubated for 48 hrs by Annexin V/7-AAD staining based flow cytometry analysis relative to control; format: functional
# [14] = Mutagenicity in Salmonella typhimurium TA102 assessed as number of revertant colonies per plate at 1500 microg/ml by Ames test; format: toxicity; settings: salmonella enterica subsp. enterica serovar typhimurium; dose 1500 µg/ml
# [15] = Mutagenicity in Salmonella typhimurium TA98 assessed as number of revertant colonies per plate at 50 microg/ml by Ames test; format: toxicity; settings: salmonella enterica subsp. enterica serovar typhimurium; dose 50 µg/ml
# [16] = tested on: Leishmania amazonensis; assay: Antileishmanial activity against leishmania amazonensis IFLA/BR/1967/PH8 promastigotes infected in mouse Peritoneal macrophage incubated for 24 hrs; format: functional, organism-based; settings: IFLA/BR/1967/PH8, Peritoneal macrophage
# [17] = Mutagenicity in Salmonella typhimurium TA98 assessed as number of revertant colonies per plate at 1500 microg/ml by Ames test; format: toxicity; settings: salmonella enterica subsp. enterica serovar typhimurium; dose 1500 µg/ml
# [18] = tested on: Leishmania amazonensis; assay: Antileishmanial activity against Leishmania amazonensis promastigotes assessed as necrotic parasites at 38.1 uM incubated for 48 hrs by Annexin V/7-AAD staining based flow cytometry analysis relative to control; format: functional
# [19] = Mutagenicity in Salmonella typhimurium TA100 assessed as number of revertant colonies per plate at 50 microg/ml by Ames test; format: toxicity; settings: salmonella enterica subsp. enterica serovar typhimurium; dose 50 µg/ml
# [20] = tested on: Leishmania amazonensis; assay: Antileishmanial activity against Leishmania amazonensis promastigotes assessed as early apoptotic parasites at 38.1 uM incubated for 24 hrs by Annexin V/7-AAD staining based flow cytometry analysis relative to control; format: functional
# [21] = Cytotoxicity against BALB/c mouse Peritoneal macrophage assessed as inhibition of cell growth incubated for 48 hrs by MTT assay; format: toxicity, cell-based; settings: peritoneal macrophages
# [22] = tested on: Leishmania amazonensis; assay: Potency index, ratio of pentamidine IC50 to test compound IC50 for antileishmanial activity against leishmania amazonensis IFLA/BR/1967/PH8 promastigotes infected in mouse Peritoneal macrophage incubated for 24 hrs; format: functional
# [23] = tested on: Leishmania amazonensis; assay: Antileishmanial activity against leishmania amazonensis infected in BALB/c mouse assessed as reduction in viable parasites in footpad tissue at 5 mg/kg, ILES measured after 65 days post infection relative to control; format: functional; settings: time 65 day
# [24] = tested on: Leishmania amazonensis; assay: Antileishmanial activity against leishmania amazonensis infected in BALB/c mouse assessed as reduction in parasitism in draining lymph node at 5 mg/kg, ILES measured after 65 days post infection by limiting dilution assay; format: functional, organism-based; settings: time 65.0 day
# [25] = tested on: Leishmania amazonensis; assay: Antileishmanial activity against Leishmania amazonensis promastigotes assessed as late apoptotic parasites at 38.1 uM incubated for 72 hrs by Annexin V/7-AAD staining based flow cytometry analysis relative to control; format: functional
# [26] = Mutagenicity in Salmonella typhimurium TA102 assessed as number of revertant colonies per plate at 50 microg/ml by Ames test; format: toxicity; settings: salmonella enterica subsp. enterica serovar typhimurium; dose 50 µg/ml
# [27] = tested on: Leishmania amazonensis; assay: Antileishmanial activity against Leishmania amazonensis promastigotes assessed as necrotic parasites at 38.1 uM incubated for 72 hrs by Annexin V/7-AAD staining based flow cytometry analysis relative to control; format: functional
# [28] = tested on: Leishmania amazonensis; assay: Antileishmanial activity against Leishmania amazonensis promastigotes assessed as late apoptotic parasites at 38.1 uM incubated for 48 hrs by Annexin V/7-AAD staining based flow cytometry analysis relative to control; format: functional
# [29] = Mutagenicity in Salmonella typhimurium TA100 assessed as number of revertant colonies per plate at 5000 microg/ml by Ames test; format: toxicity; settings: salmonella enterica subsp. enterica serovar typhimurium; dose 5000 µg/ml
# [30] = Mutagenicity in Salmonella typhimurium TA102 assessed as number of revertant colonies per plate at 150 microg/ml in presence of S9 fraction by Ames test; format: toxicity, subcellular; settings: salmonella enterica subsp. enterica serovar typhimurium, dose 150 µg/ml
# [31] = Mutagenicity in Salmonella typhimurium TA98 assessed as number of revertant colonies per plate at 500 microg/ml by Ames test; format: toxicity; settings: salmonella enterica subsp. enterica serovar typhimurium; dose 500 µg/ml
# [32] = tested on: Leishmania amazonensis; assay: Potency index, ratio of Amphotericin B IC50 to test compound IC50 for antileishmanial activity against leishmania amazonensis IFLA/BR/1967/PH8 promastigotes infected in mouse Peritoneal macrophage incubated for 24 hrs; format: functional
# [33] = tested on: Leishmania amazonensis; assay: Antileishmanial activity against Leishmania amazonensis promastigotes assessed as viable apoptotic parasites at 38.1 uM incubated for 48 hrs by Annexin V/7-AAD staining based flow cytometry analysis relative to control; format: functional
# [34] = Mutagenicity in Salmonella typhimurium TA100 assessed as number of revertant colonies per plate at 500 microg/ml by Ames test; format: toxicity; settings: salmonella enterica subsp. enterica serovar typhimurium; dose 500 µg/ml
# [35] = Mutagenicity in Salmonella typhimurium TA100 assessed as number of revertant colonies per plate at 150 microg/ml by Ames test; format: toxicity; settings: salmonella enterica subsp. enterica serovar typhimurium; dose 150 µg/ml
smiles,measurement,setting,value
COc1cc(-c2cc(-c3ccc4c(c3)OCO4)on2)c(Cl)c(OC)c1OC,Activity,[1],93.2%
same,Activity,[2],Active
same,Activity,[3],Active
same,Activity,[4],Active
same,selectivity ratio,[5],22.7
same,selectivity ratio,[6],1.3
same,revertant count,[7],109 revertants/plate
same,Activity,[8],204 revertants/plate
same,Activity,[9],0.4%
same,Activity,[10],116 revertants/plate
same,Activity,[11],95.5%
same,revertant count,[12],194 revertants/plate
same,Activity,[13],3.6%
same,Activity,[14],182 revertants/plate
same,Activity,[15],19.7 revertants/plate
same,IC50,[16],38.1 µM
same,revertant count,[17],32.7 revertants/plate
same,Activity,[18],0.6%
same,revertant count,[19],103 revertants/plate
same,Activity,[20],0.8%
same,CC50 at 48 h,[21],50.1 µM
same,Ratio IC50,[22],29
same,Activity,[23],99.5%
same,Activity,[24],Active
same,Activity,[25],1.9%
same,revertant count,[26],139 revertants/plate
same,Activity,[27],2.5%
same,Activity,[28],0.6%
same,Activity,[29],114 revertants/plate
same,Activity,[30],187 revertants/plate
same,revertant count,[31],23.3 revertants/plate
same,Ratio IC50,[32],3.6
same,Activity,[33],95.2%
same,revertant count,[34],123 revertants/plate
same,Activity,[35],94.6 revertants/plate
